Reference: patent US4965365A, “Imidazole derivatives and a process for the preparation thereof” (Laboratorios Vinas, S.A., priority 1988, dated 1990)

Assays:
[1] = test system: ethanol induced ulcers; settings: equimolecular doses
Procedure: (B) Necrotic agent model.
The activity of this compound vs cimetidine at equimolecular doses and a control group administered a vehicle was tested using the necrotic agent model, in this case ethanol, described by A. Robert et al. (Gastroenterology, 77: 433, 1979).

[2] = test system: histamine induced gastric acid secretion; settings: 15 mg/kg, i.p., rat, intragastric pH
Procedure: (A) histamine induced gastric acid secretion model "in vivo" in the rat.
This activity was measured in Wistar rats of 240±20 g body weight. An endovenous perfusion of a histamine solution stimulated the gastric acid secretion, causing a drop in the intragastric pH. Thereafter, this compound was administered i.p. and the increase in gastric pH caused was evaluated.

Row | SMILES | % inhibition of ulcers vs the control ([1]; ethanol model) [%] | mm damaged (lesion index, mm of ulcer) ([1]; mean ± standard error of the mean, control 91.4 ± 8.1, a: t test p< 0.05 vs control) [mm] | pH Recovery [2] [%]
1 | CNC(=NC#N)NCCSCc1nc[nH]c1C [Cimetidine, cimetidine] | 30.3 | 63.7 ± 7.7 | –
2 | CN=C(NC#N)NCCSCc1nc[nH]c1C.[Cl][Zn][Cl] [Zn(cimetidine)Cl2] | – | – | 65.5
